Holding throughout (type): cell-based
Assay [1] deals with G402 cells (MRT cell line). As to the kind of experiment: Cell viability (WST-1) dose response. As to conditions: for effect on cell viability: G402 cells, dose response; for IC50: Homo sapiens, G-402, G402, cell viability, 72 hours. How it is done: (§1) For SILAC experiments, A204 cells and resistant sublines were cultured in SILAC DMEM media (Thermo Fisher Scientific) supplemented with light lysine and arginine (ROKO) (Sigma) and heavy lysine and arginine (R10K8) (Goss Scientific) respectively.
(§2) 2000 cells/well were seeded in a 96-well plate and treated with inhibitors at the indicated dose and combinations for 24 h for apoptosis measurement by Caspase-Glo 3/7 Assay (Promega), or for 72 hours in cell viability measurements by WST-1 (Abcam), following the manufacturer's recommendations. IC50 data were generated from dose-response curves fitted using a four-parameter regression fit in PRISM 5 software (GraphPad).
A general note: Tetrazolium dyes change colour on reduction, which living cells bring about.

Assay [2] deals with A204 cells (parental, MRT cell line). The experiment in a line: Cell viability (WST-1) dose response. As to conditions: for effect on cell viability: A204 cells, dose response; for IC50: Homo sapiens, cell viability. How it is done: as §1, §2
Assay [3] concerns Pazopanib resistant A204 cells (PazR). The experiment in a line: Cell viability in acquired resistant subline. The note with it: Homo sapiens. The method, then:
(§3) Cells were grown initially in DMEM media containing drug concentration of 500 nM. The drug was incremented when the cells had proliferated to near confluency alongside minimal visible cell death. Drug concentration was incremented from 2 μM, 3 μM and 5 μM in a stepwise manner over 6 weeks. A final drug concentration of 5 μM was maintained in resistant cells. Media and drug were replenished twice weekly.
as §2

In assay [4] the test system is Sunitinib resistant A204 cells (SunR). As to the kind of experiment: Cell viability in acquired resistant subline. As to conditions: Homo sapiens. How it is done: as §3, §2
For assay [5], the system named is Dasatinib resistant A204 cells (DasR). As to the kind of experiment: Cell viability in acquired resistant subline. As to conditions: Homo sapiens. How it is done:
as §3, §2

The test system of another assay is PazR cells. As to the kind of experiment: Annexin V staining, automated imaging. How it is done:
as §3
Details for annexin V staining and siRNA transfections are as follows. For Annexin V staining, 3000 cells/well were seeded into 96-well CellCarrier plates (Perkin Elmer). 24 h after seeding, drugs were added and incubated for an additional 48 h. FITC-Annexin V (BD Biosciences) and Hoechst 33342 (Tocris) diluted in 10× annexin binding buffer (0.1M HEPES, 1.4M NaCl, 25 mM CaCl2) was added and incubated at 37° C. for 15 minutes. Plates were imaged using an Operetta high-content imager (Perkin Elmer). Images were analysed using Harmony software (Perkin Elmer), and annexin positivity defined as number of annexin-FITC-positive cells relative to total number of Hoechst-positive nuclei. The interaction between drugs was analysed by the Chou and Talalay median effect principle as described (Todd et al., 2014). siRNA transfections were performed as follows, 2000 cells/well were reverse transfected in 96-well plates with SMARTpool siRNAs (Dharmacon) using Lullaby reagent (Oz Biosciences). Where indicated, cells were treated with vehicle or drug 24 h post transfection. Apoptosis and cell viability were measured using Caspase 3/7 Glo and Cell Titre Glo (Promega), respectively, 72-96 h post transfection according to manufacturer's instructions and normalised to cells transfected with a non-targeting siRNA pool.

Another assay concerns Hs729T cells. The experiment in a line: Cell viability (WST-1) dose response. The note with it: 72 hours. How it is done:
(§4) Cells were cultured in DMEM (A204, G402, Saos2, U2OS, HT1080, SW684, SW872, SW982, Hs729T, RUCH-3, T9195 and AN3CA), RPMI (RMS-YM and SJSA-1) or McCoy5A (MES-SA) media supplemented with 10% FBS/2 mM glutamine/100 units/ml penicillin/[…] streptomycin in 95% air/5% CO2 atmosphere at 37° C. For SILAC experiments, A204 cells and resistant sublines were cultured in SILAC DMEM media (Thermo Fisher Scientific) supplemented with light lysine and arginine (ROKO) (Sigma) and heavy lysine and arginine (R10K8) (Goss Scientific) respectively.
as §2

For another assay, the system named is HT1080 cells. As to the kind of experiment: Cell viability (WST-1) dose response. The note with it: Homo sapiens, HT-1080, 72 hours. The method, then:
as §4, §2

The test system of the next assay is SW982 cells. As to the kind of experiment: Cell viability (WST-1) dose response. The note with it: Homo sapiens, 72 hours. The method, then: as §4, §2
The next assay concerns RMS-YM cells. As to the kind of experiment: Cell viability (WST-1) dose response. As to conditions: 72 hours. How it is done:
as §4, §2

The test system of the next assay is RUCH-3 cells. As to the kind of experiment: Cell viability (WST-1) dose response. The note with it: 72 hours. The method, then:
as §4, §2

For another assay, the system named is SAOS2 cells. The experiment in a line: Cell viability (WST-1) dose response. The note with it: Homo sapiens, SAOS-2, 72 hours. How it is done:
as §4, §2

The test system of the next assay is T91-95 cells. As to the kind of experiment: Cell viability (WST-1) dose response. The note with it: 72 hours. The method, then:
as §4, §2

A further assay has as its system MES-SA cells. The experiment in a line: Cell viability (WST-1) dose response. The note with it: Homo sapiens, 72 hours. The method, then: as §4, §2
For a further assay, the system named is SW684 cells. The experiment in a line: Cell viability (WST-1) dose response. The note with it: Homo sapiens, 72 hours. How it is done: as §4, §2
The test system of a further assay is SJSA-1 cells. As to the kind of experiment: Cell viability (WST-1) dose response. The note with it: Homo sapiens, 72 hours. How it is done: as §4, §2
The test system of a further assay is U2OS cells. The experiment in a line: Cell viability (WST-1) dose response. The note with it: Homo sapiens, 72 hours. The method, then:
as §4, §2

The subject of another assay is SW872 cells. As to the kind of experiment: Cell viability (WST-1) dose response. As to conditions: Homo sapiens, 72 hours. The method, then:
as §4, §2

The test system of another assay is ERK1/2 phosphorylation. As to the kind of experiment: Immunoblot of ERK1/2 phosphorylation. As to conditions: MRT cells; drug treatment for 1 hour (FIG. 3H). How it is done:
(§5) After the indicated treatments, cells were lysed in RIPA lysis buffer at 4° C. Lysates were loaded onto SDS-PAGE gels followed by blotting onto PVDF membranes.
(§6) Details of antibodies, immunoprecipitation and immunofluorescence analyses are as follows. For immunoblotting, cells were lysed in RIPA lysis buffer supplemented with protease and phosphatase inhibitors (Thermo Pierce) at 4° C. Lysates were loaded onto SDS-PAGE gels followed by blotting onto PVDF membranes as described (Iwai et al., 2013). Blots were probed with primary antibodies followed by corresponding horseradish peroxidase-conjugated secondary antibodies. Primary antibodies include anti-PDGFRα #3174, CST; anti-pAKT (S473) #4058, CST; anti-AKT #4691, CST; anti-pERK-T202/Y204 #4370, CST; anti-ERK #9102, CST; anti-FGFR1 #76464, abcam; anti-BAF47 (SMARCB1) #61211, BD; anti-TFR #13-6890, ThermoFisherScientific; anti-pY1000 #8954, CST and anti-α-Tubulin #T5168, Sigma. Secondary antibodies include Polyclonal Goat Anti-Rabbit HRP #P0448, Dako and Anti-Mouse HRP #G32-62G-1000, Signalchem. Immunoreactive bands were visualized by chemiluminescence (Amersham) and the blots were exposed to x-ray XAR film (Kodak).

The subject of another assay is AKT phosphorylation. As to the kind of experiment: Immunoblot of AKT phosphorylation. The note with it: MRT cells; drug treatment for 1 hour (FIG. 3H). The method, then: as §5, §6
In assay [6] the test system is MRT cells (A204 and G402). The experiment in a line: Apoptosis by Caspase-Glo 3/7 assay. As to conditions: caspase 3/7 activity. How it is done: as §2
A further assay deals with T1, PDGFRα phosphorylation (Homo sapiens, UniProt P16234).
T1 construct: Immunoprecipitation of PDGFRα followed by immunoblotting with phosphotyrosine-specific antibody (PY1000) in A204 cells; endogenous in cells; host or cells: A204 cells
T1 sequence (P16234 24-1089): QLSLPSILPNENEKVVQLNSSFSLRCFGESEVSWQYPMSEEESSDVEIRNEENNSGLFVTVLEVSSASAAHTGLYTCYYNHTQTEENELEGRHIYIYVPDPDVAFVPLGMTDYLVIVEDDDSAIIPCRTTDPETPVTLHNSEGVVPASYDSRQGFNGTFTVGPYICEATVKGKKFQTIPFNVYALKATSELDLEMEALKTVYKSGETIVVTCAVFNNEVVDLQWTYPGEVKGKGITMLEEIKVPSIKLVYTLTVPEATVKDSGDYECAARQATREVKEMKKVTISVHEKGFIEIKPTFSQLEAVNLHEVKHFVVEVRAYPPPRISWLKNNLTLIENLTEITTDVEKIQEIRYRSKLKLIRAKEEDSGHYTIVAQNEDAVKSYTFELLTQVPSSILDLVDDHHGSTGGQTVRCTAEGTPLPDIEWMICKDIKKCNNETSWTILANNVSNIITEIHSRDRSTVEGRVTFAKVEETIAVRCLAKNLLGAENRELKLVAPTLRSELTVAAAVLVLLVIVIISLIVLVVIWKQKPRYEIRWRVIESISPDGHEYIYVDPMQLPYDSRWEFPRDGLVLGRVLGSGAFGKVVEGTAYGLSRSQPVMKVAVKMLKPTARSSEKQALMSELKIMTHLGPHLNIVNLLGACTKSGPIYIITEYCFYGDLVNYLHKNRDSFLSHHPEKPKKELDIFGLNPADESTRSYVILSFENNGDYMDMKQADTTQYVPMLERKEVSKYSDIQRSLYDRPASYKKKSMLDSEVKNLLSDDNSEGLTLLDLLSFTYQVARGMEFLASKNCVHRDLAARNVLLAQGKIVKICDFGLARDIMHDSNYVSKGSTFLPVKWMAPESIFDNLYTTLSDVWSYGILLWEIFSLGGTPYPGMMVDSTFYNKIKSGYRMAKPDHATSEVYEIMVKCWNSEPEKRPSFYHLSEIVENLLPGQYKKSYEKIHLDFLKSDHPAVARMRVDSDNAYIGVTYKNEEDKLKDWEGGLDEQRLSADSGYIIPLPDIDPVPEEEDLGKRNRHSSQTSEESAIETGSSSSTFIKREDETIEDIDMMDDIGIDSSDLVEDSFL
The experiment in a line: Immunoprecipitation of PDGFRα and phosphotyrosine immunoblot. As to conditions: A204 cells; 1 μM for 1 hour.

Setting [7] is: 72 h, Pazopanib resistant A204 cell line, single and combination drug treatment, Table S3.
The mark [8] stands for this setting: A204 Pazopanib resistant subline, cell viability, Table S2.

Experimental for PDGFRα phosphorylation: For immunoprecipitation, cells were lysed in RIPA lysis buffer (contained 1% Triton) supplemented with protease and phosphatase inhibitors (Thermo Pierce) at 4° C. After microcentrifugation at 2,000 rpm. for 10 min, 200 μg of lysate was diluted in 200 ul lysis buffer. […] Protein G plus agarose beads were added and incubated for three hours at 4° C. to collect immune complexes, washed five times with lysis buffer and eluted in sample buffer. Proteins were resolved by SDS-PAGE, transferred to PVDF membrane and immunoblotting was performed as described above.

Turning to AZD4547, the “effect on cell viability” value in [1] and in assay [2] was “ineffective” throughout.
Consider `Cc1ccc(Nc2nccc(N(C)c3ccc4c(C)n(C)nc4c3)n2)cc1S(N)(=O)=O` [Pazopanib, pazopanib], for which the 50% inhibitory concentration (IC50) in assay [3] (setting [7]) was over 10 µM; in [3] (setting [8]), over 10 µM; in assay [4], over 10 µM; in [5] it was over 10 µM; in assay [1] it was 0.238 µM; in [2] (A204, 72 hours, Table S1), 0.219 µM. Also, the IC50 is 0.245 µM in assay [2] (A204 Parental, Table S2); over 10 µM in the assay on Hs729T cells; over 10 µM with HT1080 cells; over 10 µM in the assay on SW982 cells; over 10 µM in the assay on RMS-YM cells; over 10 µM with RUCH-3 cells. For the same molecule, the IC50 with SAOS2 cells, with T91-95 cells, in the assay with MES-SA cells, in the assay on SW684 cells, in the assay on SJSA-1 cells and in the assay on U2OS cells was over 10 µM in each case. In addition, the IC50 with SW872 cells was over 10 µM. The “proportion of apoptotic cells compared to vehicle control” value with PazR cells was “no effect”.
As for `Cc1ccc(C(=O)Nc2ccc(CN3CCN(C)CC3)c(C(F)(F)F)c2)cc1C#Cc1cnc2cccnn12` [Ponatinib, 3-(2-imidazo[1,2-b]pyridazin-3-ylethynyl)-4-methyl-N-[4-[(4-methyl-1-piperazinyl)methyl]-3-(trifluoromethyl)phenyl]-benzamide], the “ERK1/2 phosphorylation” value with ERK1/2 phosphorylation was “suppression”. The half-inhibitory concentration (IC50) in assay [3] (setting [7]) came out at 0.272 µM. Also, the “effect on cell viability” value in [1] and in [2] was “sensitive” in each case. Moreover, the “AKT phosphorylation” value in the assay on AKT phosphorylation is “suppression”. Also, the “apoptosis” value in assay [6] is “enhanced apoptosis”. Besides, the “proportion of apoptotic cells compared to vehicle control” value in the assay with PazR cells was “significant increase”.
With `CCN1CCN(c2ccc(Nc3cc(N(C)C(=O)Nc4c(Cl)c(OC)cc(OC)c4Cl)ncn3)cc2)CC1` [BGJ398], in the assay with ERK1/2 phosphorylation, the “ERK1/2 phosphorylation” value is given as “decreased”. Moreover, the concentration for half-maximal inhibition (IC50) in [3] (setting [7]) was determined as 0.247 µM. Besides, the “effect on cell viability” value in [2] is on record as “reduced viability”. Besides, the “AKT phosphorylation” value in the assay with AKT phosphorylation is given as “no effect”. The “PDGFRα phosphorylation” value on PDGFRα phosphorylation is listed as “no effects”. Besides, the “proportion of apoptotic cells compared to vehicle control” value in the assay on PazR cells is “significant increase”.
For the molecule `Cc1nc(Nc2ncc(C(=O)Nc3c(C)cccc3Cl)s2)cc(N2CCN(CCO)CC2)n1` [Dasatinib, dasatinib], the IC50 in assay [3] (setting [8]) is over 10 µM; in [4] it was over 10 µM; in assay [5], over 10 µM; in [1] it was 0.0623 µM; in [2] (A204, 72 hours, Table S1), 0.0418 µM; in [2] (A204 Parental, Table S2), 0.0418 µM. Also, the IC50 with Hs729T cells was over 10 µM; with HT1080 cells, over 10 µM; in the assay with SW982 cells it was 0.188 µM; in the assay with RMS-YM cells, over 10 µM; in the assay with RUCH-3 cells, over 10 µM; in the assay with SAOS2 cells, 1.15 µM. Besides, the concentration for half-maximal inhibition (IC50) is over 10 µM in the assay with T91-95 cells; over 10 µM with MES-SA cells; 0.0624 µM in the assay on SW684 cells; over 10 µM in the assay with SJSA-1 cells; over 10 µM with U2OS cells; 1.04 µM in the assay with SW872 cells.
For the molecule `CCN(CC)CCNC(=O)c1c(C)[nH]c(/C=C2\C(=O)Nc3ccc(F)cc32)c1C` [Sunitinib, sunitinib], the 50% inhibitory concentration (IC50) in [3] (setting [8]) was over 10 µM; in assay [4], over 10 µM; in [5], 5.01 µM; in [1], 0.0369 µM; in [2] (A204, 72 hours, Table S1), 0.0363 µM; in assay [2] (A204 Parental, Table S2), 0.0363 µM. Further, the IC50 was over 10 µM in the assay with Hs729T cells; over 10 µM in the assay on HT1080 cells; 0.582 µM with SW982 cells; over 10 µM in the assay on RMS-YM cells; over 10 µM in the assay on RUCH-3 cells; 4.57 µM in the assay with SAOS2 cells. The concentration for half-maximal inhibition (IC50) with T91-95 cells, in the assay on MES-SA cells, in the assay on SW684 cells, with SJSA-1 cells, in the assay with U2OS cells and with SW872 cells was over 10 µM in each case.

Usually IC50 stands for the concentration at which inhibition is half-maximal.

The values above are taken from patent publication US20220218708A1, “METHODS FOR TREATING SMARCB1 DEFICIENT CANCER OR PAZOPANIB RESISTANT CANCER” (The Institute of Cancer Research:Royal Cancer Hospital, priority 2016, published 2022).
